According to patent US8987514B2, “Compositions and methods for labeling and imaging phospholipids” (President and Fellows of Harvard College, priority 2009, dated 2015):

System: NIH-3T3 cells
Settings: for incorporation of azide choline analogs into phospholipids: FIG. 8 legend
Excerpt: After incorporation into phospholipids, azidophosphatidylcholine molecules can be detected by specifically reacting them with a fluorescent conjugate of dibenzo-cyclooctyne (DBCO), in a strain-promoted azide-alkyne cycloaddition reaction, also known as the copper-free “click” reaction (FIG. 9). In addition, azidophosphatidylcholine molecules can be reacted with a biotin-phosphine, followed by the detection of the biotinylated phospholipid species using labeled streptavidin (FIG. 10).
Cultured NIH-3T3 cells on coverslips were incubated overnight in complete media (DMEM with 10% bovine calf serum) in the absence or presence of 1 mM azidopropyl-choline. The cells were then washed with PBS, fixed with 3.7% formaldehyde in PBS, washed with TBS and then reacted with 40 microM biotin-phosphine in TBS supplemented with 1 mM DTT, for 3 hours at room temperature. The cells were then washed successively with TBS, 0.5 M NaCl, and TBS. Non-specific binding sites were blocked by incubation with blocking buffer (4% bovine serum albumin in TBS), followed by staining with Alexa488-streptavidin (1 microg/mL in blocking buffer). The cells were then washed with TBS (at least 4 washes, at 5 minutes each), mounted and imaged by fluorescence microscopy.
Cultured NIH-3T3 cells were transiently transfected with the plasmid pDsRed-Mito (Clontech), which labels mitochondria red. The cells were then incubated overnight in complete media, in the absence or presence of 500 microM azidoethyl-choline. The cells were washed with PBS, fixed with 3.7% formaldehyde in PBS, washed with TBS and then reacted with 20 microM Alexa488-DBCO in TBS, for 30 minutes at room temperature. Unreacted Alexa488-DBCO was removed by washing successively with TBS, 0.5 M NaCl, and TBS. The cells were then imaged by fluorescence microscopy.

Substance | incorporation of azide choline analogs into phospholipids | subcellular distribution of azidoethylcholine-labeled phospholipids (NIH-3T3 cells, 500 microM overnight, DsRed-Mito marker, Alexa488-DBCO, FIG. 12)
azidoethyl-choline | efficiently incorporated into phospholipids in vivo | localize to several populations of cellular membranes, including the mitochondrial membrane
azidopropyl-choline | efficiently incorporated into phospholipids in vivo | –
